From patent US20140024683A1, “CHLORIDE CHANNEL AND CHLORIDE TRANSPORTER MODULATORS FOR THERAPY IN SMOOTH MUSCLE DISEASES” (priority 2011, published 2014)

Tests used:
[1] = tested on: human airway smooth muscle cells; assay: FLIPR membrane potentiometric dye assay (Example 21); assay type: cell-based
Method: Immortalized airway smooth muscle cell lines modified to stably express human telomerase reverse transcriptase were a kind gift from Dr. William Gerthoffer (University of Southern Alabama, Mobile, Ala.) prepared as described previously (Gosens et al., 2006) and grown in Dulbecco's Modified Eagle's Medium/F12 media (GIBCO, Grand Island, N.Y.), with 10% FBS and antibiotics.
Immortalized human airway smooth muscle cells were cultured on black-walled 96 well plates to 100% confluence, and were washed four times with warmed (37° C.) assay buffer of the following composition (in mM): NaCl 140, KCl 4.7, CaCl2 2.5, MgCl2 1.2, HEPES 11, D-glucose 10. A stock solution (100% dye) of FLIPR blue dye was prepared by reconstitution of 1 vial (125 mg) with 100 ml assay buffer. A 50% working stock was prepared by further diluting the reconstituted blue dye 1:1 with assay buffer and was used to load cells (90 μl/well) over 45 min at 37° C. in a humidified cell culture incubator (95% air/5% CO2). All reagents were dissolved in assay buffer. Fluorescence was measured with a Flex Station 3 (Molecular Devices) using an excitation wavelength of 530 nm, emission wavelength of 565 nm and a cutoff filter of 550 nm. Baseline fluorescence was measured every 2 seconds for 1 minute then for 2 minutes after injection of vehicle or compound of interest as indicated (using the Flexstation's 3 integrated injection capabilities).
Human airway smooth muscle cells were incubated with FLIPR membrane potentiometric dye to assess if the chloride channel blockers changed membrane potential at the cellular level. FLIPR fluorescence will increase with depolarization, and decrease with hyperpolarization. […] Therefore, chloride channel blockade, but not NKCC blockade, hyperpolarized human airway smooth muscle cells.

[2] = tested on: human airway smooth muscle cells; assay: MQAE fluorescence assay of intracellular chloride; assay type: cell-based
Method: To determine whether blockade of CaCCs or NKCCs induce changes in intracellular chloride concentrations in human airway smooth muscle cells, the MQAE in vitro fluorescent dye assay (Invitrogen) was used. Briefly, human airway smooth muscle cells were grown to 100% confluence in 96-well black-walled plates. Cells were loaded overnight with 10 mM MQAE in serum-free basal cell culture medium (M199, Invitrogen) and were washed once with warmed (37° C.) normal-chloride buffer [consisting of (in mM) 130 sodium chloride, 2 CaCl2, 1 MgCl2, 10 D-glucose, and 10 HEPES, pH 7.4]. […] An increase in fluorescence represents decreased intracellular chloride (removal of halide quenching of MQAE) while decreased fluorescence represents increased intracellular chloride (enhanced halide quenching of MQAE).

[3] = tested on: human airway smooth muscle strips; assay: Organ bath force, acetylcholine-induced contractions of human airway smooth muscle strips after pretreatment; conditions: 100 μM, separate blockade (alone)
Method: Human muscle tissue was acquired from excess lung airways trimmed during surgery from healthy lung transplant donors. Acquired tissue was stored overnight at 20° C. Airway smooth muscle contractions measured ex vivo in organ baths were performed as previously described (Gallos et al., 2008; Gallos et al., 2009, Gallos et al., 2011; Gleason et al., 2010; Yim et al., 2011; Mitzuta et al., 2008). Closed guinea pig tracheal rings or strips of human airway smooth muscle (tracheal or main stem bronchus) were suspended in organ baths, which had 95% oxygen constantly perfusing through Dulbecco's Modified Eagle Medium. Rings were cut on the cartilaginous borders of the smooth muscle. The epithelial layer was dissected under microscopic assistance. […]
Following equilibration, in guinea pig experiments, the capsaicin analog N-vanillylnonanamide (10 μM final) was added to the organ baths to first activate and then deplete nonadrenergic, noncholinergic nerves. […] To avoid bias between treatment groups, tissues were contracted to individually calculated EC50 values for acetylcholine and tissues with similar Emax values were randomly assigned to treatments within individual experiments. […]

[4] = tested on: guinea pig tracheal rings; assay: Organ bath muscle force, TEA-induced contraction of guinea pig tracheal rings (Examples 1, 4, 13); conditions: 10 mM TEA; 100 μM niflumic acid
Method: Epithelial denuded guinea pig tracheal rings were suspended in organ baths under 1 g resting tension with continuous digital recordings of muscle force. In separate studies, guinea pig airway smooth muscle cells were enzymatically dispersed and cultured.
Human muscle tissue was acquired from excess lung airways trimmed during surgery from healthy lung transplant donors. Acquired tissue was stored overnight at […]. Airway smooth muscle contractions measured ex vivo in organ baths were performed as previously described (Gallos et al., 2008; Gallos et al., 2009, Gallos et al., 2011; Gleason et al., 2010; Yim et al., 2011; Mitzuta et al., 2008). Closed guinea pig tracheal rings or strips of human airway smooth muscle (tracheal or main stem bronchus) were suspended in organ baths, which had 95% oxygen constantly perfusing through Dulbecco's Modified Eagle Medium. Rings were cut on the cartilaginous borders of the smooth muscle. The epithelial layer was dissected under microscopic assistance. Briefly, tissues were suspended in a water-jacketed (37° C.) 2-ml organ bath (Radnoti Glass Technology, Monrovia, Calif.) and attached to a Grass FT03 force transducer (Grass Telefactor, West Warwick, R.I.) coupled to a computer via BioPac hardware and Acqknowledge 7.3.3 software (Biopac Systems, Goleta, Calif.). Kreb's-Henseleit (KH) buffer was continuously bubbled with 95% oxygen and 5% carbon dioxide and tissues were allowed to equilibrate at 1 g (guinea pig) or 1.5 g (human) isotonic force for 1 hour with fresh KH buffer changes every 15 minutes.
Following equilibration, in guinea pig experiments, the capsaicin analog N-vanillylnonanamide (10 μM final) was added to the organ baths to first activate and then deplete nonadrenergic, noncholinergic nerves. […]. In experiments with human tissue, no vanillylnonanamide pretreatment was done. To avoid bias between treatment groups, tissues were contracted to individually calculated EC50 values for acetylcholine and tissues with similar Emax values were randomly assigned to treatments within individual experiments. Following extensive KH buffer changes (8-9 times) tissues were allowed to stabilize at isotonic resting tension (about 1.0 g). To remove confounding effects of other procontractile pathways, each bath received a complement of antagonists 20 minutes prior to subsequent contractile challenge. The antagonists included pyrilamine (10 μM; H1 histamine receptor antagonist), and tetrodotoxin (1 μM; blocker of endogenous cholinergic or C-fiber neuronal effects) in guinea pig experiments or pyrilamine and 10 μM MK571 (leukotriene receptor antagonist) in human tissue experiments. […]
Airway smooth muscle contractions measured ex vivo in organ baths were performed as set forth above. […]

Structure (SMILES) | change in membrane potential (FLIPR) ([1]; 10 μM bumetanide) | intracellular chloride (MQAE fluorescence) ([2]; 10 μM bumetanide) | intracellular chloride (MQAE fluorescence) ([2]; 10 μM bumetanide, listed as Bumetanide) | effect on acetylcholine-induced contraction [3] | relaxation of TEA-induced contraction [4] [%] | membrane potential, continuous fluorescence recording (representative tracing) [1] | change in relative fluorescent units (membrane potential, FLIPR) ([1]; 100 μM, n=12) | intracellular chloride (MQAE fluorescence) ([2]; 100 μM niflumic acid)
CCCCNc1cc(C(=O)O)cc(S(N)(=O)=O)c1Oc1ccccc1 [bumetanide] | did not cause a significant change | impairs chloride entry | decreases [Cl^−]i | does not significantly reduce contraction |  |  |  | 
O=C(O)c1cccnc1Nc1cccc(C(F)(F)F)c1 [niflumic acid] |  |  |  | does not significantly reduce contraction | 82.5 | hyperpolarize | −254.7+/−37 RFU | increases intracellular chloride
